Assay results taken from patent publication US11384381B2, “Reaction accelerating agent” (Kikkoman Corporation, priority 2016, dated 2022).

Assays:
Assay type in all cases: biochemical
[1] = tested on: fructosyl peptide oxidase (FPOX-CET); test: Acceleration of fructosyl valyl histidine detection reaction with small amount of fructosyl peptide oxidase (Example 7); conditions: 0.04% (w/v) compound, 0.48 U/ml FPOX-CET; for effect of accelerating the fructosyl valyl histidine detection reaction: versus not added; for Degree of progression of reaction (%) after 7.5 minutes / Degree of progression of reaction (%) after 10 minutes: fructosyl valyl histidine detection reaction, ΔA/ΔA100%; for Degree of progression of reaction (%) after 7.5 minutes: 2.5 minutes after addition of second reagent, not added: 57; for Degree of progression of reaction (%) after 10 minutes: 5 minutes after addition of second reagent, not added: 81
Method: Next, in this Example, the degree of acceleration of fructosyl valyl histidine detection reaction by the compound of the present invention was determined using a small amount of fructosyl peptide oxidase.
A reagent for fructosyl valyl histidine measurement having the following composition was prepared, and the measurement of fructosyl valyl histidine was carried out using Bio Majesty JCA-BM 1650 (manufactured by JEOL Ltd.).
(§1) 32 μM fructosyl valyl histidine (manufactured by Kikkoman Biochemifa Company)
(§2) 30 mM MOPS-NaOH buffer solution, pH 7.0
(§3) 0.2% (v/v) Triton X-100 (manufactured by Wako Pure Chemical Industries, Ltd.)
(§4) 10 U/ml peroxidase PEO-301 (Toyobo Co., Ltd.)
(§5) 0.023 mM 10-(carboxymethylaminocarbonyl)-3,7-bis(dimethylamino)phenothiazine sodium (DA-67, manufactured by Wako Pure Chemical Industries, Ltd.)
(§6) 0.04% (w/v) of the compound of Comparative Example 2, any one compound of the present invention, or compound-free (Comparative Example 1) ion-exchange water as shown in Table 1
(§7) 10 mM MOPS-NaOH buffer solution, pH 7.0
0.48 U/ml FPOX-CET (manufactured by Kikkoman Biochemifa Company)
(§8) 8 μl of the sample was added to 96 μl of the first reagent-B, and the mixture was incubated at 37° C. for 5 minutes. Then, 24 μl of the second reagent-D was added thereto, and the quantitative reaction of hydrogen peroxide resulting from the oxidation of fructosyl valyl histidine was allowed to progress at 37° C. for 5 minutes. The absorbance (A694 and A751) of the reaction solution for light at wavelengths of 694 nm and 751 nm was measured over time for 10 minutes after the mixing of the sample with the first reagent-B to determine the value of subtraction of A751 from A694. i.e., the value A694/751. Subsequently, ΔA was calculated by subtracting, from A694/751, the value of (104/128) times A694/751 4.8 minutes after the mixing of the sample with the first reagent-B. Incidentally, 5 minutes after the mixing of the sample with the first reagent-B represents the time immediately before the addition of the second reagent-D.
(§9) Next, ΔA calculated in this Example was divided by ΔA1000% defined in Example 6 to calculate the degree of progression of fructosyl valyl histidine detection reaction. The degree of progression of fructosyl valyl histidine detection reaction 7.5 and 10 minutes after the mixing of the sample with the first reagent-B (in other words, 2.5 and 5 minutes after the addition of the second reagent-D) is shown in Table 4.

[2] = tested on: fructosyl peptide oxidase (FPOX-CET); test: Fructosyl valyl histidine detection reaction completed with excess fructosyl peptide oxidase (Example 6); conditions: 0.04% (w/v) compound, 4.8 U/ml FPOX-CET (excess), 32 μM fructosyl valyl histidine, pH 7.0, 37° C.; for ΔA9 min: change in A694-A751 9 minutes after mixing; for ΔA10 min: change in A694-A751 10 minutes after mixing, defined as ΔA100%
Method: In this Example the amount of change in absorbance is determined when the detection reaction of the substrate fructosyl valyl histidine was completed using an excess amount of fructosyl peptide oxidase (FPOX-CET), which is an oxidase.
A reagent for fructosyl valyl histidine measurement having the following composition was prepared, and the measurement of fructosyl valyl histidine using fructosyl peptide oxidase was carried out using Bio Majesty JCA-BM1650 (manufactured by JEOL Ltd.).
as §1, §2, §3, §4, §5, §6, §7
4.8 U/ml FPOX-CET (manufactured by Kikkoman Biochemifa Company)
as §8, with “second reagent-C” for “second reagent-D”, “from A694,” for “from A694.”, “from […],” for “from A694/751,”, “Incidentally, 4.8” for “Incidentally, 5”, “second reagent-C. ΔA 9 minutes and 10 minutes after the mixing of the diluted sample with the first reagent-B (ΔA9min and ΔA10min) are shown in Table 3.” for “second reagent-D.”
In other words, it can be recognized that the quantitative reaction of fructosyl valyl histidine, i.e., the quantitative reaction of hydrogen peroxide resulting from the oxidation of fructosyl valyl histidine, was completed in 10 minutes after the mixing of the diluted sample with the first reagent-B. Accordingly, in Examples 6 and 7, ΔA10min in each Comparative Example or the present invention was defined as ΔA when 100% of the quantitative reaction of […] progressed under each condition (ΔA100%).

[3] = tested on: fructosyl amino acid oxidase (FAOD-E); test: Acceleration of fructosyl valine detection reaction with small amount of fructosyl amino acid oxidase (Example 9); conditions: 0.04% (w/v) compound, 2.14 U/ml FAOD-E; for effect of accelerating fructosyl valine detection reaction: versus not added; for Degree of progression of reaction (%) after 7.5 minutes / Degree of progression of reaction (%) after 10 minutes: fructosyl valine detection reaction, ΔA/ΔA100%; for Degree of progression of reaction (%) after 7.5 minutes: 2.5 minutes after addition of second reagent, not added: 29; for Degree of progression of reaction (%) after 10 minutes: 5 minutes after addition of second reagent, not added: 48
Method: Next, in this Example, the degree of acceleration of fructosyl valine detection reaction by the compound of the present invention was determined using a small amount of fructosyl amino acid oxidase.
A reagent for fructosyl valine measurement having the following composition was prepared, and the measurement of fructosyl valine was carried out using Bio Majesty JCA-BM1650 (manufactured by JEOL Ltd.).
32 μM fructosyl valine (manufactured by Kikkoman Biochemifa Company)
30 mM MOPS-NaOH buffer solution, pH 8.0
0.2% (v/v) NYMEEN F-215 (manufactured by NOF Corp.)
as §4, §5, §6
10 mM MOPS-NaOH buffer solution, pH 8.0
2.14 U/ml FAOD-E (manufactured by Kikkoman Biochemifa Company)
8 μl of the sample was added to 96 μl of the first reagent-C, and the mixture was incubated at 37° C. for 5 minutes. Then, 24 μl of the second reagent-F was added thereto, and the quantitative reaction of hydrogen peroxide resulting from the oxidation of fructosyl valine was allowed to progress at 37° C. for 5 minutes. The absorbance (A694 and A751) of the reaction solution for light at wavelengths of 694 nm and 751 nm was measured over time for 10 minutes after the mixing of the sample with the first reagent-C to determine the value of subtraction of A751 from A694, i.e., the value A694/751. Subsequently, ΔA was calculated by subtracting, from A694/751, the value of (104/128) times A694/751 4.8 minutes after the mixing of the sample with the first reagent-C. Incidentally, 5 minutes after the mixing of the sample with the first reagent-C represents the time immediately before the addition of the second reagent-F.
as §9, with “ΔA100%” for “ΔA1000%”, “8” for “6”, “valine” for “valyl histidine”, “reagent-C” for “reagent-B”, “reagent-F)” for “reagent-D)”, “6.” for “4.”

Compound	effect of accelerating the fructosyl valyl histidine detection reaction [1]	Degree of progression of reaction (%) after 7.5 minutes [1] [%]	Degree of progression of reaction (%) after 10 minutes [1] [%]	ΔA9 min [2]	ΔA10 min [2]	effect of accelerating fructosyl valine detection reaction [3]	Degree of progression of reaction (%) after 7.5 minutes [3] [%]	Degree of progression of reaction (%) after 10 minutes [3] [%]
COc1cc(N=Nc2cccc(S(=O)(=O)[O-])c2)ccc1NC(=O)Nc1ccc(N=Nc2ccc(O)c(C(=O)[O-])c2)cc1.[Na+].[Na+] [Direct Yellow 44]	effect of accelerating the fructosyl valyl histidine detection reaction	66	88	0.043	0.043	–	–	–
COc1cc(N=Nc2ccc(N)cc2)c(C)cc1N [Disperse Diazo Black 3BF]	–	–	–	–	–	effect of accelerating fructosyl valine detection reaction	86	89
Xylene Fast Yellow 2G	effect of accelerating the fructosyl valyl histidine detection reaction	63	96	0.027	0.027	–	–	–
O=C([O-])c1cc(N=Nc2cccc([N+](=O)[O-])c2)ccc1O.[Na+] [Alizarin Yellow GG]	–	–	–	–	–	effect of accelerating fructosyl valine detection reaction	38	62
O=C(O)c1cc(N=Nc2ccc3cc(S(=O)(=O)O)ccc3c2)ccc1O.[Na] [Chrome Yellow]	effect of accelerating the fructosyl valyl histidine detection reaction	62	86	0.064	0.064	effect of accelerating fructosyl valine detection reaction	43	68
O=C([O-])c1cc(N=Nc2ccc([N+](=O)[O-])cc2)ccc1O.[Na+] [Mordant Orange 1]	–	–	–	–	–	effect of accelerating fructosyl valine detection reaction	37	59
Cc1nn(-c2cc(S(=O)(=O)[O-])ccc2Cl)c(O)c1N=Nc1ccccc1.[Na+] [Acid Yellow 34]	effect of accelerating the fructosyl valyl histidine detection reaction	62	86	0.032	0.033	–	–	–
